Paper PMC6468496 (2019)

Experiments:
Experiment in all cases: fluorescence titration (ligand quenching)
Details in all cases: 125 mM K+, 5 mM Mg2+; 40 mM HEPES pH 7.4, 25 °C, 50 nM ligand, RNA titrated, Hill fit
[1] = system: R10K6 (RNA, aptamer) GGGAGACGCAACUGAAUGAAAAUGUCAUUCAAGACUAGGUUGUGACUGCUUAGGCAGUUGUGGACGGCUAAGCCCACCAGAGGUCCGUAACUAGUCGCGUCAC
[2] = system: V10 (R10K6 with changed J5a/5) (RNA, aptamer) GGGAGACGCAACUGAAUGAAAAUGUCAUUCAAGACUAGGUUGUGACUGCUUAGGCAGUUGUGGACGGCUAAGCCCAAACAAAGUCCGUAACUAGUCGCGUCAC
[3] = system: V4 (R10K6 without P5 and P5a) (RNA, aptamer) GGGAGACGCAACUGAAUGAAAAUGUCAUUCAAGACUAGGUUGUGACUGCUUAGGCAGUUGUAACUAGUCGCGUCAC
[4] = system: V8 (R10K6 without stem P5a) (RNA, aptamer) GGGAGACGCAACUGAAUGAAAAUGUCAUUCAAGACUAGGUUGUGACUGCUUAGGCAGUUGUGGACACCAGAGGUCCGUAACUAGUCGCGUCAC
[5] = system: V17 (R10K6 with shortened P4) (RNA, aptamer) GGGAGACGCAACUGAAUGAAAAUGUCAUUCAAGACUAGGUUGUGACAAAGGUUGUGGACGGCUAAGCCCACCAGAGGUCCGUAACUAGUCGCGUCAC
[6] = system: R10K6_V11 (RNA, aptamer) GGGAGACGCAACAGACUAGGUUGUGACUGCUUAGGCAGUUGUGGACGGCUAAGCCCACCAGAGGUCCGUAACUAGUCGCGUCAC
[7] = system: V13 (R10K6 ∆P1∆P2) (RNA, aptamer) GACUAGGUUGUGACUGCUUAGGCAGUUGUGGACGGCUAAGCCCACCAGAGGUCCGUAACUAGUC

## CCN1CCN(c2cc3c(cc2F)c(=O)c(C(=O)O)cn3C2CC2)CC1
[1]
  binding: yes

## CCn1cc(C(=O)O)c(=O)c2cc(F)c(N3CCNCC3)cc21
[1]
  binding: yes

## CN1C[C@@H]2C[C@H]1CN2c1cc2c(cc1F)c(=O)c(C(=O)O)cn2C1CC1
[1]
  binding: yes

## O=C(O)c1cn(C2CC2)c2cc(N3CCNCC3)c(F)cc2c1=O
[2]
  KD: 101 nM
[3]
  binding: no
[1]
  KD: 31 nM
[4]
  KD: 76 nM
[5]
  binding: no
[6]
  KD: 36 nM
[7]
  KD: 473 nM

## O=c1ccn(C2CC2)c2cc(N3CCNCC3)c(F)cc12
[1]
  binding: weak
